Test results: patent publication US12391660B2, “Heteroaromatic acetamide derivative, and preparation and use thereof” (Hangzhou Westan Pharmaceutical Technology Co., Ltd, priority 2019, dated 2025)

target: human TRPA1 (Homo sapiens (Human), UniProt O75762); assay: FLIPR assay of inhibitory activity on human TRPA1 (calcium ion flux fluorescence); format: cell-based; settings: HEK293 cells stably expressing human TRPA1
Description: 1. FLIPR Assay of Inhibitory Activity on Human TRPA1
A calcium ion flux fluorescence method (FLIPR assay) was adopted to measure the inhibitory activity of compounds on human TRPA1 channel. The literature reports of Lee and Chen et al. may be referred to for the method [Lee et al. Br J Pharmacol 2008, 153 (8): 1739-1749] [Chen et al. Pain 2011, 152(5):1165-72].
A HEK293 recombinant cell strain stably expressing human TRPA1 (Creative Biogene, NY) was cultured in DMEM (Thermo Fisher Scientific, Shanghai) medium (containing 10% calf serum, 5 μg/ml Blasticidin and 400 ug/ml G418). The incubator was under a condition of 37° C. and air humidity with 5% CO2.
TRPA1 cells were seeded in a 96-well analysis plate at a density of 75,000 cells per well (100 ul/well), and cultured overnight in an incubator at 37° C. and 5% CO2. On the second day, incubation was continued overnight under the same condition to induce the expression of TRPA1 after the culture medium in each well was poured out and a fresh supplement with the same culture medium containing 0.1 μg/ml Tetracycline was added. The further next day, the culture medium was pour out, a DMEM culture solution (also containing 2.5 mM Probenicid) containing 5 μM Fluo-4 AM (Molecular Probes) was added to each well, and incubation was conducted at 37° C. for 1 hour.
The compound was dissolved in 100% DMSO to prepare a 30 mM stock solution which was stored at −20° C. On the day of use, the compound stock solution was thawed at room temperature. Each compound was subjected to 1:5 serial dilution using DMSO medium at a starting concentration of 30 μM with 9 concentration points on a 96-well plate. Each compound was diluted in duplicate for testing. Ruthenium Red was used as the positive control compound and the same dilution was carried out at a starting concentration of 3 μM.
The cell analysis plate was placed in an FLIPR instrument […], and the compound in the compound plate was added to the corresponding hole on the cell analysis plate (First addition) via an automatic program, and the calcium ion fluorescence signal was recorded to determine whether the compound had agonistic activity. After 10 minutes, CaCl2 (Second addition) was added a final concentration of 3 mM to each well to stimulate intracellular calcium flux signals. Ca^++-dependent fluorescence signal was monitored continuously at 538 nm wavelength to analyze the inhibitory activity of the compounds.
The data was collected and analyzed using a FLIPR program. The fluorescence peak value was used to evaluate the inhibitory (or agonistic) activity of the compounds at each concentration. EXCEL and PRISM programs were used to calculate the IC50 value of the compounds.

Chain of human TRPA1 (O75762 whole entry): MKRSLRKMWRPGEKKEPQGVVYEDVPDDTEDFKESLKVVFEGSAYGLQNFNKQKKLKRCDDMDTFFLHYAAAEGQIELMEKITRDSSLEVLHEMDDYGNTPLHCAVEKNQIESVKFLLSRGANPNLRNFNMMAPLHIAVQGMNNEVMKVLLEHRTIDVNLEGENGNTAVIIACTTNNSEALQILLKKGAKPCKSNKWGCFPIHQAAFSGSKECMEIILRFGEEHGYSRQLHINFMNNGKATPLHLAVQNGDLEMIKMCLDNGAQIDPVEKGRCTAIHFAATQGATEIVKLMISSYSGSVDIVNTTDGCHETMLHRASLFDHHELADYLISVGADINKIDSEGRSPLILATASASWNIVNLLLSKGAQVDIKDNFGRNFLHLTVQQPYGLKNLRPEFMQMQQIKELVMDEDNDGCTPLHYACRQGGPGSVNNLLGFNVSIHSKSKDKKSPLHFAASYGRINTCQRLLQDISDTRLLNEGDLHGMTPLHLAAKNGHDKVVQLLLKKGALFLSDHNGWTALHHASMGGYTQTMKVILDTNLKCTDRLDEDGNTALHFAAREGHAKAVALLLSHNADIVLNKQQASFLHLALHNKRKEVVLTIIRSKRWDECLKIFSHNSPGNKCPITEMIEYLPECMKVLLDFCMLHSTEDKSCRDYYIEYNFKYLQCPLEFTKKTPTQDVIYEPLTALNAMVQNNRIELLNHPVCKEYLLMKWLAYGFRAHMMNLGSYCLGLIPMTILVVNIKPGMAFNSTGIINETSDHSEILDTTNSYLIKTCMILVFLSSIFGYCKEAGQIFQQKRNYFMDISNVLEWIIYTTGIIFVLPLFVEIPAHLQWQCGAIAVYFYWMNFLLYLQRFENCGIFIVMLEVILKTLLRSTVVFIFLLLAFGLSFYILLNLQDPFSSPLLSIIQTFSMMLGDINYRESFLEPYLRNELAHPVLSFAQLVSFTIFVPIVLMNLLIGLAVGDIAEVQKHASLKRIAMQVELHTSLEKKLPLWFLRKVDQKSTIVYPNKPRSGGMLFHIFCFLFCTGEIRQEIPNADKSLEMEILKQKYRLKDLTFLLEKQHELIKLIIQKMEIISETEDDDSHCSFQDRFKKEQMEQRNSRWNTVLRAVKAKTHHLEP

| IC50 | Compound |
| --- | --- |
| 105 nM | N#Cc1ccc(NC2(C(=O)N3CCN(c4cccc(C(F)(F)F)c4)CC3)CCCC2)cc1 [Compound 2, 4-((1-(4-(3-(trifluoromethyl)phenyl)piperazine-1-carbonyl)cyclopentyl)amino)benzo-nitrile] |
| 1580 nM | N#Cc1ccc(NC2(C(=O)N3CCN(c4ccccc4C(F)(F)F)CC3)CCCC2)cc1 [Compound 3, 4-((1-(4-(2-(trifluoromethyl)phenyl)piperazine-1-carbonyl)cyclopentyl)amino)benzo-nitrile] |
| 152 nM | N#Cc1ccc(NC2(C(=O)N3CCN(c4ccccc4OC(F)(F)F)CC3)CCCC2)cc1 [Compound 4, 4-((1-(4-(2-(trifluoromethoxy)phenyl)piperazine-1-carbonyl)cyclopentyl)amino)benzo-nitrile] |
| 129 nM | N#Cc1ccc(NC2(C(=O)N3CCN(c4ccc(OC(F)(F)F)cc4)CC3)CCCC2)cc1 [Compound 5] |
| 35 nM | COc1cc(Cl)ccc1N1CCN(C(=O)C2(Nc3ccc(C#N)cc3)CCCC2)CC1 [Compound 6, 4-((1-(4-(4-chloro-2-methoxyphenyl)piperazine-1-carbonyl)cyclopentyl)amino)benzo-nitrile] |
| 64 nM | Cc1cccc(N2CCN(C(=O)C3(Nc4ccc(C#N)cc4)CCCC3)CC2)c1 [Compound 7] |
| 568 nM | CCC(CC)(Nc1ccc(C#N)cc1)C(=O)N1CCN(c2cccc(C(F)(F)F)c2)CC1 [Compound 8] |
| 32 nM | N#Cc1ccc(NC2(C(=O)N3CCN(c4ccc(C(F)(F)F)cn4)CC3)CCCC2)cc1 [Compound 10, 4-((1-(4-(5-(trifluoromethyl)pyridin-2-yl)piperazine-1-carbonyl)cyclopentyl)amino)benzonitrile] |
| 6230 nM | N#Cc1ccc(NC2(C(=O)N3CCN(c4cccc(C(F)(F)F)n4)CC3)CC2)cc1 [Compound 12, 4-((1-(4-(6-(trifluoromethyl)pyridin-2-yl)piperazine-1-carbonyl)cyclopropyl)amino)ben zonitrile] |
| 378 nM | N#Cc1ccc(NC2(C(=O)N3CCN(c4cccc(C(F)(F)F)n4)CC3)CCC2)cc1 [Compound 13, 4-((1-(4-(6-(trifluoromethyl)pyridin-2-yl)piperazine-1-carbonyl)cyclobutyl)amino)benzo nitrile] |
| 87 nM | CC(C)(C)C(Nc1ccc(C#N)cc1)C(=O)N1CCN(c2cccc(C(F)(F)F)n2)CC1 (centres unmarked) [Compound 14] |
| 23 nM | Cc1cccc(N2CCN(C(=O)C3(Nc4ccc(C#N)cc4)CCCC3)CC2)n1 [Compound 15, 4-((1-(4-(6-methylpyridin-2-yl)piperazine-1-carbonyl)cyclopentyl)amino)benzonitrile] |
| 8920 nM | CN(C)C(=O)c1ccc(N2CCN(C(=O)C3(Nc4ccc(C#N)cc4)CCCC3)CC2)nc1 [Compound 16, 6-(4-(1-((4-cyano-phenyl)amino)cyclopentane-1-carbonyl)piperazine-1-yl)N, N-dimethylnicotinamide] |
| 18 nM | N#Cc1ccc(NC2(C(=O)N3CCN(c4ncc(C(F)(F)F)cn4)CC3)CCCC2)cc1 [Compound 17, 4-((1-(4-(5-(trifluoromethyl)pyrimidin-2-yl)piperazine-1-carbonyl)cyclopentyl)amino)ben zonitrile] |
| 38 nM | N#Cc1ccc(NC2(C(=O)N3CCN(c4nccc(C(F)(F)F)n4)CC3)CCCC2)cc1 [Compound 18, 4-((1-(4-(4-(trifluoromethyl)pyrimidin-2-yl)piperazine-1-carbonyl)cyclopentyl)amino) benzonitrile] |
| 87 nM | N#Cc1ccc(NC2(C(=O)N3CCN(c4ccc(C(F)(F)F)nn4)CC3)CCCC2)cc1 [Compound 19, 4-((1-(4-(6-(trifluoromethyl)pyridazin-3-yl)piperazine-1-carbonyl)cyclopentyl)amino) benzonitrile] |

| IC50 | Compound |
| --- | --- |
| 576 nM | N#Cc1ccc(NC2(C(=O)N3CCN(c4ccc(C(F)(F)F)s4)CC3)CCCC2)cc1 [Compound 24, 4-((1-(4-(5-(trifluoromethyl)thien-2-yl)piperazine-1-carbonyl)cyclopentyl)amino)benzonitrile] |
| 876 nM | N#Cc1ccc(NC2(C(=O)N3CCN(c4ncc(C(F)(F)F)s4)CC3)CCCC2)cc1 [Compound 25, 4-((1-(4-(5-(trifluoromethyl)thiazol-2-yl)piperazine-1-carbonyl)cyclopentyl)amino)benzonitrile] |
| 2830 nM | Cn1ccc(N2CCN(C(=O)C3(Nc4ccc(C#N)cc4)CCCC3)CC2)n1 [Compound 26, 4-((1-(4-(1-methyl-1H-pyrazol-3-yl)piperazine-1-carbonyl)cyclopentyl)amino)benzonitrile] |
| 567 nM | C#Cc1ccc(NC2(C(=O)N3CCN(c4cccc(C(F)(F)F)n4)CC3)CCCC2)cc1 [Compound 27, 4-((1-(4-(6-(trifluoromethyl)pyridin-2-yl)piperazine-1-carbonyl)cyclopentyl)amino)phenylacetylene] |
| 26 nM | N#Cc1ccc(NC2(C(=O)N3CC4CCC3CN4c3cccc(C(F)(F)F)n3)CCCC2)cc1 (centres unmarked) [Compound 29, 4-((1-(5-(6-(trifluoromethyl)pyridin-2-yl)-2,5-diazabicyclo[2.2.2]octane-2-carbonyl)cyclopentyl)amino)benzonitrile] |
| 54 nM | N#Cc1ccc(NC2(C(=O)N3CCN(CC4CCCC4)CC3)CCCC2)cc1 [Compound 30, 4-((1-(4-(cyclopentanemethyl)piperazine-1-carbonyl)cyclopentyl)amino)benzonitrile] |
| 543 nM | CC(C)CC1CCN(C(=O)C2(Nc3ccc(C#N)cc3)CCCC2)CC1 [Compound 32, 4-((1-(4-(isobutyl)piperidine-1-carbonyl)cyclopentyl)amino)benzonitrile] |
| 92 nM | N#Cc1ccc(NC2(C(=O)N3CCC(C4CCCC4)CC3)CCCC2)cc1 [Compound 33, 4-((1-(4-(cyclopentyl)piperidine-1-carbonyl)cyclopentyl)amino)benzonitrile] |
| 287 nM | N#Cc1ccc(NC2(C(=O)N3CCC4(CCCC4)CC3)CCCC2)cc1 [Compound 34, 4-((1-(8-aza-spiro[4.5]decane-8-carbonyl)cyclopentyl)amino)benzonitrile] |
| 85 nM | N#Cc1ccc(NC2(C(=O)N3CCC(C4CCCCC4)CC3)CCCC2)cc1 [Compound 35, 4-((1-(4-(cyclohexyl)piperidine-1-carbonyl)cyclopentyl)amino)benzonitrile] |
| 1250 nM | C#Cc1ccc(NC2(C(=O)N3CCC(C(C)(C)C)CC3)CCCC2)cc1 [Compound 36, 4-((1-(4-(tert-butyl)piperidine-1-carbonyl)cyclopentyl)amino)phenylacetylene] |
| 5210 nM | CC(C)(C)C1CCN(C(=O)C2(Nc3ccc(C#N)cc3)CCC2)CC1 [Compound 37, 4-((1-(4-(tert-butyl)piperidine-1-carbonyl)cyclobutyl)amino) benzonitrile] |
| 10200 nM | CC(C)(C)C1CCN(C(=O)C2(Nc3ccc(C#N)cc3)CC2)CC1 [Compound 38, 4-((1-(4-(tert-butyl)piperidine-1-carbonyl)cyclopropyl)amino)benzonitrile] |
| 1080 nM | CC(C)(C)C1CCN(C(=O)C2(Nc3nc(C#N)cs3)CCCC2)CC1 [Compound 39, 2-((1-(4-(tert-butyl)piperidine-1-carbonyl)cyclopentyl)amino) thiazole-4-carbonitrile] |
| 950 nM | CC(C)(C)C1CCN(C(=O)C2(Nc3ncc(C#N)s3)CCCC2)CC1 [Compound 40, 2-((1-(4-(tert-butyl)piperidine-1-carbonyl)cyclopentyl)amino)thiazole-5-carbonitrile] |
| 3070 nM | CC(C)(C)C1CCN(C(=O)C2(Nc3nc(C#N)co3)CCCC2)CC1 [Compound 41, 2-((1-(4-(tert-butyl)piperidine-1-carbonyl)cyclopentyl)amino) oxazole-4-carbonitrile] |

| Compound | IC50 |
| --- | --- |
| 4-((3-(4-(3-trifluoromethyl) phenyl)piperazine-1-carbonyl) propane-2-yl)amino)benzo- nitrile [Compound 9] | 5670 nM |
| N#Cc1ccc(NC2(C(=O)N3CCN(c4ccc(C(F)(F)F)nn4)CC3)CCCC2)cc1Cl [Compound 22, 2-chloro-4-((1-(4-(6-(trifluoromethyl)pyridazin-3-yl)piperazine-1-carbonyl)cyclopentyl)amino)benzonitrile] | 765 nM |
| N#Cc1ccc(NC2(C(=O)N3C[C@H]4CC[C@@H](C3)N4c3cccc(C(F)(F)F)n3)CCCC2)cc1 [Compound 28, 4-((1-(8-(6-(trifluoromethyl)pyridin-2-yl)-3,8-diazabicyclo[3.2.1]octane-3-carbonyl)cyclopentyl)amino)benzonitrile] | 15 nM |
